Values joined by “and” are separate entries in the source; they are usually repeats but may differ in a detail not shown here. Equal entries are not always repeated. Bridge positions count the residues as written; N and C are the ends. Peptide text beside a SMILES is read from it.
Key:
[1] = test system: IL2 release in human T-cells; assay: IL2 release in human T-cells, ELISA; format: cell-based; details: CsA, T20K 4 μM, V10K 4 μM; PHA-L, PMA/ionomycin
Protocol: B. IL2 release in human T-cells after treatment with cyclotide. […] After another two hours PHA-L (10 μg/mL) was added to the appropriate wells and incubated over night at 37° C. On the next day T-cells were re-stimulated with Ionomycin (500 ng/mL) and PMA (50 ng/mL) for 6 hours at 37° C. Cells were then centrifuged at 3000 rpm for 5 minutes to gain their supernatants. Supernatants of stimulated T-cells were analyzed for their IL2 release using a human IL-2 ELISA Kit from eBioscience according to the manufacturer's instructions. The color reaction was evaluated at an optical density of 450 nm by the microplate reader Synergy H4 (BioTek).
Moreover, supernatants of stimulated T-cells were analyzed for their IL2 release using a human IL-2 ELISA Kit from eBioscience according to the manufacturer's instructions. The color reaction was evaluated at an optical density of 450 nm by the microplate reader Synergy H4 (BioTek) (FIG. 12B).

[2] = test system: IL-2 surface receptor CD25 on PBMC; assay: IL-2 surface receptor CD25 expression, FACS; format: cell-based, human; details: cyclotides 4 μM, CsA 5 μg/mL, PHA-L; stimulated untreated PBMCs = 100%
Protocol: PBMCs were isolated from blood samples of healthy adults that were provided by the transfusion center of the university hospital in Freiburg (Germany). […] The lymphocyte-enriched layer was transferred into a new vessel and washed three times with PBS and centrifuged again (10 min, twice with 300×g and last time with 800 rpm, 20° C.). For the following experiments, the cells were either stained with CFSE or diluted with medium to 4*10^6 cells/ml. Cells were counted in alight microscope using trypan blue staining and a hemocytometer.
Following purification, PBMCs were equilibrated for 2 h at 37° C. […] This was followed by washing of each well with 100 μl PBS (centrifugation for 5 min, 1000 rpm, 20° C.) and re-suspending the cells in 100 μl medium for further assays.
Activated cells were transferred into a 96-well plate, centrifuged (5 min, 1000 rpm, 20° C.), washed one time with 100 μl FACS-buffer and stained with CD25 PE for 15 min at 4° C. Then cells were washed twice with FCS-buffer and resuspended in 100 μl FACS-buffer, transferred into FACS vials with a total volume of 250 μl and the expression of IL2 surface receptor CD25 was measured by FACS analysis using a FACSCalibur instrument (BD Biosciences).
Amongst other pathways, T-cell proliferation is determined by binding of the cytokine IL-2 to its cell surface receptor. Therefore the influence of cyclotides on the expression of the IL-2 receptor was tested. […] As control substance CsA was used. […] Treatment with V10A yields 114%±12.5, V10K yields 112%±16.3 and T8K yields 114%±17.3 CD25 surface expression after 24 h as compared to the control (FIG. 11B).

[3] = test system: splenic T-cells of naive mouse group; assay: Cytokine release of splenic T-cells of naive EAE mice treated in vitro, ELISA; format: cell-based; details: for IL2 release after 48 h incubation: V10K 4 μM, MOG35-55 30 μg/mL
Protocol: FIG. 22. Effect on cytokine release of ex vivo isolated PBMC at day 1 and 2. […] To approve this EAE TH bias towards TH17 and TH1 cells, IL4 release was again analyzed, but this TH2 cytokine was not detectable (I, J), as already indicated in (D).
Spleens of sacrificed mice were taken and transferred into a 6 cm Petri Dish with 5 mL sterile PBS. To receive a spleenocyte suspension, spleens were meshed and filtered through 70 μm nylon sieve. Cells were centrifuged at 1200 rpm for 5 minutes and resuspended in RPMI 1640 media supplemented with 10% fetal calf serum (FCS), 2 mM L-glutamine, penicillin (100 U/mL), and streptomycin (100 μg/mL). Spleenocytes were cultivated at a concentration of 3×10^6/mL in a 48-well flat-bottom plate (500 μL/well). Cells were stimulated with 30 μg/mL MOG35-55 or left untreated and incubated at 37° C. for three days. Supernatants and cells were taken stored at −20° C. until further experiments. […] After 12 hours MOG or T20K was added to appropriate wells. Supernatants were stored after 24 hours and after 48 hours at −20° C.
Supernatants of stimulated spleenocytes were analyzed for their IL2, IL17, INFγ, IL4 and IL22 cytokine release using anti-mouse antibodies for ELISA from eBioscience according to the manufacturer's instructions. The color reaction was evaluated at an optical density of 450 nm by the microplate reader Synergy H4 (BioTek).

[4] = test system: EAE-induced C57BL/6J mice; assay: EAE in C57BL/6J mice treated with T20K, clinical score; format: in vivo, mouse
Protocol: FIG. 19. Effect on clinical EAE score. After induction of EAE, mice treated with T20K and naïve mice were scored every second day, starting at day 10.
Mice (n=10/group) were treated on day (−7), 0, 7 with 200 μg/100 μL/mouse T20K solubilized in sterile PBS intraperitoneally (i.p.), as indicated in the figure. On day 0 they were immunized subcutaneously with myelin oligodendrocyte glycoprotein (MOG35-55, 1 mg/mL) and complete Freud's adjuvant (CFA, 10 mg/mL) mixed at equal parts. Therefore 70 μL were injected into the left and right flank. Additionally mice received 100 μL pertussis toxin (2 μg/mL) i.p. on day 0 and again on day 2. Beginning at day 10 mice were scored every second day. Weight was also measured at day (−7), 0, 7 and on the same day during scoring.

nematodes = assay: Relative nematocidal activity (other assays, Table 2); format: in vivo; details: some cells print two values separated by a slash

CC(C)C[C@@H]1NC(=O)CNC(=O)[C@H](CC(N)=O)NC(=O)[C@H](CCCNC(=N)N)NC(=O)[C@H]([C@@H](C)O)NC(=O)[C@@H]2CSSC[C@@H]3NC(=O)[C@H]([C@@H](C)O)NC(=O)CNC(=O)CNC(=O)[C@H](C(C)C)NC(=O)[C@@H]4CSSC[C@H](NC(=O)[C@H](CCCCN)NC(=O)[C@H](CSSC[C@H](NC(=O)[C@H](C(C)C)NC(=O)[C@@H]5CCCN5C1=O)C(=O)NCC(=O)N[C@@H](CCC(=O)O)C(=O)N[C@@H]([C@@H](C)O)C(=O)N4)NC(=O)CNC(=O)[C@@H]1CCCN1C(=O)[C@H]([C@@H](C)O)NC(=O)[C@H](CC(N)=O)NC3=O)C(=O)N[C@@H](CO)C(=O)N[C@@H](Cc1c[nH]c3ccccc13)C(=O)N1CCC[C@H]1C(=O)N[C@@H](C(C)C)C(=O)N2 [Kalata T20K] (cyclo(CGETCVGGTCNTPGCKCSWPVCTRNGLPV); disulfide 1-15, 5-17, 10-22 (inferred); ring closure inferred)
IL2 release in human T-cells [1]: significant inhibition of cell proliferation in accordance to the IL2 level | CD25 expression after 48 h [2]: 46%±18.2 | CD25 surface expression after 24 hours [2]: 79%±10.1 | IL17 production after 48 h ([3]; T20K 4 μM): inhibited | IL2 inhibition after 24 h ([3]; T20K 4 μM compared with CsA 5 μg/mL): non-significant to the immune suppressive agent CsA | IL2 release after 48 h incubation ([3]; T20K 4 μM): significantly inhibited | INFγ and IL22 cytokine release ([3]; dependent on the cyclotide addition): repressed significantly | clinical EAE score / symptoms ([4]; T20K 200 μg/100 μL/mouse i.p. on day -7, 0 or 7, vs naive group): delayed and minor symptoms of EAE | prophylactic effect on clinical EAE score ([4]; mice treated seven days before EAE induction, Dunnett's test): demonstrate significantly the prophylactic effect | Relative activity in other assays (fold difference to kB1): nematocidal (nematodes): 3.0 fold difference to kB1 and 2.6 fold difference to kB1

kalata B1 mutant GLPVCGETCKGGTCNTPGCTCSWPVCTRN (SEQ ID No. 10) [Kalata V10K]
IL2 release in human T-cells [1]: comparable results | CD25 expression after 48 h [2]: no significant change in receptorexpression | CD25 surface expression after 24 hours [2]: 112%±16.3 | IL2 release after 48 h incubation ([3]; T20K 4 μM): shows a inhibitory capacity towards IL2 release | Relative activity in other assays (fold difference to kB1): nematocidal (nematodes): <0.2 fold difference to kB1
